# Data reported in publication PMC5464773 (eLife, 2017).
# Read-outs that look alike come from different tables or passages of the source.
# Legend:
# Mcl-1 = target: T1, Mcl-1 (Homo sapiens, UniProt Q07820); assay: Competition fluorescence polarization (anisotropy) with fluoresceinated BIM; type: binding
# T1 construct: c-myc
# Experimental: C-myc-tagged receptors were used for all Bcl-2 homologs, as previously described ([DeBartolo et al., 2012]; [Dutta et al., 2010]). Plates were mixed at 23°C for 3 hr. Plates were read again at 24 to check equilibration. Experiments were done in at least triplicate. Data were fit, as described for competition fluorescence anisotropy experiments in [Foight et al. (2014]), to a complete competitive binding model (equation 17 in [Roehrl et al. [2004]]) using a Python script.
# Bcl-2 = target: T2, Bcl-2 (Homo sapiens, UniProt P10415); assay: as above; type: binding
# T2 construct: c-myc
# Experimental: (§1) Plates were mixed at 23°C for 3 hr. Plates were read again at 24 to check equilibration. Experiments were done in at least triplicate.
# Bcl-w = target: T3, Bcl-w (Homo sapiens, UniProt Q92843); assay: as above; type: binding
# T3 construct: c-myc
# T3 sequence (Q92843 1-193): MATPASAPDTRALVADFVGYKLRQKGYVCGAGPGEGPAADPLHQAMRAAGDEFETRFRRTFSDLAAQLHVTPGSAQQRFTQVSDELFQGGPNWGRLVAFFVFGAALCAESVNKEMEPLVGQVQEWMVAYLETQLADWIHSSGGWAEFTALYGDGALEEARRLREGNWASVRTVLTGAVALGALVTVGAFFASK
# Experimental: as §1
# Bcl-xL = target: T4, Bcl-xL (Homo sapiens, UniProt Q07817); assay: as above; type: binding
# T4 construct: c-myc
# Experimental: as §1
# Bfl-1 = target: T5, Bfl-1 (Homo sapiens, UniProt Q16548); assay: as above; type: binding; settings: for Ki / Ki (M) Bfl-1: competition FP source data; for Ki: mean of three replicates
# T5 construct: c-myc
# T5 sequence (Q16548 1-175): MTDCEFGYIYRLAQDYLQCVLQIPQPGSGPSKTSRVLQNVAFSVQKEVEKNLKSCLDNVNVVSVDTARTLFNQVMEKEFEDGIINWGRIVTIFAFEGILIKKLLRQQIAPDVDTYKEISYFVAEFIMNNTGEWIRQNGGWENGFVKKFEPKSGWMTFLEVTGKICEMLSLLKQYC
# Experimental: as §1
# [1] = tested on: BCR-ABL-expressing B-lineage acute lymphoblastic leukemia cells dependent on Mcl-1; settings: iBH3 fits Mcl-1, sigmoidal dose-response (variable slope)
# Experimental: (§2) As an additional test for on-pathway activity, we measured cytochrome c release in the same engineered cell lines in response to peptide treatment, using iBH3 profiling ([Ryan et al., 2016]).
# (§3) The creation and characterization of the BCR-ABL-expressing B-lineage acute lymphoblastic leukemia suspension cell lines with engineered dependencies on human versions of anti-apoptotic genes is detailed in [Koss et al. (2016)]). Cells were grown in RPMI (Life Technologies, Carlsbad, CA) with 10% fetal bovine serum, 2 mM L-glutamine, 10 mL/L 100x Pen/Strep (Life Technologies # 15140122), 25 mM HEPES and 10 mL/L 100x NEAA (Life Technologies, 11140050). The adherent cell lines PC-3 (RRID: CVCL_0035) and SF295 (RRID: CVCL_1690) are from the NCI60 panel ([Lorenzi et al., 2009]) and were grown in RPMI (Life Technologies) with 10% fetal bovine serum, 2 mM L-glutamine and 10 mL/L 100x Pen/Strep (Life Technologies # 15140122 ). Cell line identities were confirmed by STR profiling. The Lookout Mycoplasma PCR detection kit (Sigma) was used to detect mycoplasma infection.
# (§4) Cells were suspended in MEB buffer (150 mM mannitol, 50 mM KCl, 10 mM HEPES, 5 mM succinic acid, 20 μM EGTA, 20 μM EDTA, 0.1% BSA, final pH 7.4) at 0.5*10^6 cells/mL (adherent lines) or 2 *10^6 cells/mL (suspension lines). Cell suspension was added to a 384 non-binding well plate (10 μL/well) containing peptides at 2X final concentration in MEB with 20 μg/mL digitonin. Plates were incubated at 25°C for 1 hr. To terminate exposure, 10 μL of 4% formaldehyde in PBS was added to each well, plates were incubated for 10 min before addition of 10 μL N2 buffer (1.7M Tris, 1.25M glycine, pH 9.1) for 5 min. 10 μL of staining buffer (2% Tween20, 10% BSA, PBS) containing 10 μg/mL Hoechst 33342 and 1.25 μg/mL anti-cytochrome c Alexa647 conjugate (BioLegend clone 6H2.B4) was added to each well before sealing the plate and shaking overnight. The median fluorescence of the cytochrome c channel of Hoechst positive singlets was recorded by an IntelliCyt iQue Screener Plus. Cytochrome c release was determined by normalizing the median fluorescence intensity (MFI) data to positive control wells (Alamethicin) and negative control wells (DMSO) as follows: Cytochromecrelease=1−(MFIsample−MFIAlamethicin)/(MFIDMSO−MFIAlamethicin)
# [2] = tested on: BCR-ABL-expressing B-lineage acute lymphoblastic leukemia cells dependent on Bcl-2; assay: iBH3 profiling, cytochrome c release; type: cell-based; settings: iBH3 fits Bcl-2, sigmoidal dose-response (variable slope)
# Experimental: as §2, §3, §4
# PC-3 cells = assay: iBH3, cytochrome c release in unprimed cells (BAK/BAX activator function); type: cell-based
# Experimental: (§5) To test the possibility that FS1, FS2 or FS3 may directly activate BAK and BAX, we measured cytochrome c release in two ‘unprimed’ cell lines (PC-3 and SF295). Unprimed cells require BAK/BAX activators to release cytochrome c ([Certo et al., 2006]).
# (§6) Cell line identities were confirmed by STR profiling.
# (§7) Plates were incubated at 25°C for 1 hr.
# SF295 cells = type: cell-based
# Experimental: as §5, §6, §7
# [3] = competition FP source data, replicate 1
# [4] = competition FP source data, replicate 2
# [5] = competition FP source data, replicate 3
# [6] = competition FP source data, mean of three replicates, values above 5 μM are reported as > 5 μM in the figures, read-out: mean Ki (M) Bcl-w
# [7] = iBH3 fit PC-3, sigmoidal dose-response (variable slope), fit of 4 replicates
# [8] = SF295 cells, iBH3 fit, sigmoidal dose-response (variable slope)
# [9] = competition FP source data, mean of three replicates, values above 5 μM are reported as > 5 μM in the figures, read-out: mean Ki (M) Mcl-1
# [10] = competition FP, 50 nM c-myc-tagged receptor + 25 nM fluoresceinated BIM, Tris pH 7.8, 23°C, 3 hr, mean ± SD of three replicates, read-out: Ki (nM) Mcl-1
# [11] = competition FP, 50 nM c-myc-tagged receptor + 25 nM fluoresceinated BIM, Tris pH 7.8, 23°C, 3 hr, mean ± SD of three replicates, read-out: Ki (nM) Bcl-2
# [12] = competition FP, 50 nM c-myc-tagged receptor + 25 nM fluoresceinated BIM, Tris pH 7.8, 23°C, 3 hr, mean ± SD of three replicates, read-out: Ki (nM) Bcl-w
# [13] = competition FP, 50 nM c-myc-tagged receptor + 25 nM fluoresceinated BIM, Tris pH 7.8, 23°C, 3 hr, mean ± SD of three replicates, read-out: Ki (nM) Bcl-xL
# T1 sequence (Q07820 whole entry): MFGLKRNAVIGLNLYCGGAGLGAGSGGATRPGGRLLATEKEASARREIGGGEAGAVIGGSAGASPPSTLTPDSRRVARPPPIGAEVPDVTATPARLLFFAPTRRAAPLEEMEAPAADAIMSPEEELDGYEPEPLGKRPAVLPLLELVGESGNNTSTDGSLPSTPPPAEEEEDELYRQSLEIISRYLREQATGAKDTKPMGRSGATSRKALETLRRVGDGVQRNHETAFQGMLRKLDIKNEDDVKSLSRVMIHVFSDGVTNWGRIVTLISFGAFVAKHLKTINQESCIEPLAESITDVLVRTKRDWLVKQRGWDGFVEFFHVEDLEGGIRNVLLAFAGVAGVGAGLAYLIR
# T4 sequence (Q07817 whole entry): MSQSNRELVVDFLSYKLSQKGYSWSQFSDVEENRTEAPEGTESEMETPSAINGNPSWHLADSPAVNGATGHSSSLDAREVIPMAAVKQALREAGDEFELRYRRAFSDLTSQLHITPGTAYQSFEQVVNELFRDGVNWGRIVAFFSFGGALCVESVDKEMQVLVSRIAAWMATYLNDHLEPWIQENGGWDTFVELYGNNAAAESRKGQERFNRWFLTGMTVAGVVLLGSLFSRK
# T2 sequence (P10415 whole entry): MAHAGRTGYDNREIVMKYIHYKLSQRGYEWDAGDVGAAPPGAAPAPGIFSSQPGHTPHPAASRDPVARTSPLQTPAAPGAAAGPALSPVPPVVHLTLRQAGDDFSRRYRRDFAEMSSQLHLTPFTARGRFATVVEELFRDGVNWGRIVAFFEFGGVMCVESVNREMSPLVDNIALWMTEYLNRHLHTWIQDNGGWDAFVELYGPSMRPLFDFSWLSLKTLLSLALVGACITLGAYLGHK
Ki (M) Mcl-1 (Mcl-1; [3]),Ki (M) Mcl-1 (Mcl-1; [4]),Ki (M) Mcl-1 (Mcl-1; [5]),Ki (M) Bcl-2 (Bcl-2; [3]),Ki (M) Bcl-2 (Bcl-2; [4]),Ki (M) Bcl-2 (Bcl-2; [5]),Ki (Bcl-w; [6]),Ki (M) Bcl-w (Bcl-w; [3]),Ki (M) Bcl-w (Bcl-w; [4]),Ki (M) Bcl-w (Bcl-w; [5]),Ki (M) Bcl-xL (Bcl-xL; [3]),Ki (M) Bcl-xL (Bcl-xL; [4]),Ki (M) Bcl-xL (Bcl-xL; [5]),Ki (Bfl-1),Ki (M) Bfl-1 (Bfl-1; replicate 1),Ki (M) Bfl-1 (Bfl-1; replicate 2),Ki (M) Bfl-1 (Bfl-1; replicate 3),Ki (Mcl-1; [9]),Ki (Mcl-1; [10]),Ki (Bcl-2; [11]),Compound,further results
2.28e-09 M,3.28e-09 M,1.63e-09 M,4.27e-09 M,9.91e-09 M,2.68e-09 M,2.97e-09 M,4.44e-09 M,4.04e-09 M,4.31e-10 M,2.23e-09 M,4.17e-09 M,4.19e-10 M,4.84 nM,4.9e-09 M,5.4e-09 M,4.23e-09 M,–,–,–,"CC[C@H](C)[C@H](NC(=O)[C@H](CCC(=O)O)NC(=O)[C@H](CCCNC(=N)N)NC(=O)[C@H](C)NC(=O)[C@H](Cc1c[nH]c2ccccc12)NC(=O)[C@H](CCC(N)=O)NC(C)=O)C(=O)NCC(=O)N[C@@H](C)C(=O)N[C@@H](CCC(N)=O)C(=O)N[C@@H](CC(C)C)C(=O)N[C@@H](CCCNC(=N)N)C(=O)N[C@@H](CCCNC(=N)N)C(=O)N[C@@H](CCSC)C(=O)N[C@@H](C)C(=O)N[C@@H](CC(=O)O)C(=O)N[C@@H](CC(=O)O)C(=O)N[C@@H](CC(C)C)C(=O)N[C@@H](CC(N)=O)C(=O)N[C@@H](C)C(=O)N[C@@H](CCC(N)=O)C(=O)N[C@@H](Cc1ccc(O)cc1)C(=O)N[C@@H](CCC(=O)O)C(=O)N[C@@H](CCCNC(=N)N)C(N)=O [PUMA, reference compound]","HillSlope (best-fit value) [1]: ~ 1.358; Bottom (best-fit value) ([1]; fit of 3 replicates): ~ -276.9; Top (best-fit value) ([1]; fit of 3 replicates): 0.9859; LogEC50 (best-fit value) ([2]; log of EC50, x axis Log [Peptide M]): -7.436; HillSlope (best-fit value) [2]: 1.78; Bottom (best-fit value) ([2]; fit of 3 replicates): 0.2923; Top (best-fit value) ([2]; fit of 3 replicates): 1.01; peptide concentration leading to cytochrome c release in unprimed cells (PC-3 cells; PC-3, unprimed, iBH3, 25°C, 1 hr): observed cytochrome c release; LogEC50 (best-fit value) (PC-3 cells; iBH3 fit PC-3, log of EC50, x axis Log [Peptide M], sigmoidal dose-response (variable slope)): -6.309; HillSlope (best-fit value) (PC-3 cells; iBH3 fit PC-3, sigmoidal dose-response (variable slope)): 1.567; Bottom (best-fit value) (PC-3 cells; [7]): 0.1477; Top (best-fit value) (PC-3 cells; [7]): 0.7911; peptide concentration leading to cytochrome c release in unprimed cells (SF295 cells; SF295, unprimed, iBH3, 25°C, 1 hr): observed cytochrome c release; Bottom (best-fit value) (SF295 cells; [8]): -0.02393; HillSlope (best-fit value) (SF295 cells; [8]): 0.4226; Top (best-fit value) (SF295 cells; [8]): 0.958; LogEC50 (best-fit value) (SF295 cells; SF295 cells, iBH3 fit, sigmoidal dose-response (variable slope), log of peptide concentration in M): -5.945"
6.72e-10 M,1.94e-10 M,1.4e-10 M,–,–,–,–,–,–,–,3.68e-09 M,1.31e-09 M,2.24e-09 M,–,–,–,–,3.36e-10 M,> 5e-06 M,2000 ± 160 nM,Ac-QWAREIGAGLRRAADDVNAQVER-NH2 [Puma_N/FS2_C],"Ki (Bcl-w; [12]): > 5e-06 M; Ki (Bcl-xL; competition FP source data, mean of three replicates, values above 5 μM are reported as > 5 μM in the figures, read-out: mean Ki (M) Bcl-xL): 2.41e-09 M; Ki (Bcl-xL; [13]): 1.1e-06 ± 3e-07 M"
5.7e-06 M,6.84e-05 M,0.00018 M,1.99e-06 M,1.85e-06 M,2.17e-06 M,8.83e-06 M,9.94e-06 M,6.82e-06 M,9.74e-06 M,–,–,–,594 nM,4.65e-07 M,6.79e-07 M,6.37e-07 M,8.46e-05 M,3e-10 ± 3e-10 M,14 ± 2 nM,Ac-QWVREIAAQLRRMADDLNAQYER-NH2 [FS2_N/Puma_C],"Ki (Bcl-2; competition FP source data, mean of three replicates, values above 5 μM are reported as > 5 μM in the figures, read-out: mean Ki (M) Bcl-2): 2000 nM; Ki (Bcl-w; [12]): 1.2e-09 ± 3e-10 M; Ki (Bcl-xL; [13]): 2.4e-09 ± 1.2e-09 M"

Compound,Ki (M) Mcl-1 (Mcl-1; [3]),Ki (M) Mcl-1 (Mcl-1; [4]),Ki (M) Mcl-1 (Mcl-1; [5]),Ki (M) Bcl-2 (Bcl-2; [3]),Ki (M) Bcl-2 (Bcl-2; [4]),Ki (M) Bcl-2 (Bcl-2; [5]),Ki (Bcl-w; [6]),Ki (M) Bcl-w (Bcl-w; [3]),Ki (M) Bcl-w (Bcl-w; [4]),Ki (M) Bcl-w (Bcl-w; [5]),Ki (M) Bcl-xL (Bcl-xL; [3]),Ki (M) Bcl-xL (Bcl-xL; [4]),Ki (M) Bcl-xL (Bcl-xL; [5]),Ki (Bfl-1),Ki (M) Bfl-1 (Bfl-1; replicate 1),Ki (M) Bfl-1 (Bfl-1; replicate 2),Ki (M) Bfl-1 (Bfl-1; replicate 3),Ki (Mcl-1; [9]),Ki (Mcl-1; [10]),Ki (Bcl-2; [11]),further results
Ac-RPVIWIAQGLRRAGDEVNAYVAR-NH2 [BIM-FS2],–,–,–,–,–,–,–,–,–,–,–,–,–,–,7.75e-07 M,7.87e-07 M,5.89e-07 M,–,–,–,fold weaker binding to Bfl-1 than native BIM (Bfl-1; ratio of Ki values from competition FP): > 1000 fold
